Results from US5189027A, “2-substituted adenosine derivatives and pharmaceutical compositions for circulatory diseases” (priority 1990, dated 1993).
Read-outs that look alike come from different tables or passages of the source.

Columns and labels:
[1] = biological target: T1, A2 adenosine receptors (Rattus norvegicus, UniProt P30543); assay: Affinity for A2 adenosine receptors, [3H]-NECA binding to Wister rat striatal membranes; conditions: for Ki: Wister rat striatal membranes, 5 nM [3H]-NECA, Cheng and Prusoff, read-out: Affinity for Adenosine Receptors A2, affinity constant (Ki)
T1 construct: evaluated using Wister rat striatal membranes; from tissue; host or cells: Wistar rat striatal membranes
T1 sequence (P30543 whole entry): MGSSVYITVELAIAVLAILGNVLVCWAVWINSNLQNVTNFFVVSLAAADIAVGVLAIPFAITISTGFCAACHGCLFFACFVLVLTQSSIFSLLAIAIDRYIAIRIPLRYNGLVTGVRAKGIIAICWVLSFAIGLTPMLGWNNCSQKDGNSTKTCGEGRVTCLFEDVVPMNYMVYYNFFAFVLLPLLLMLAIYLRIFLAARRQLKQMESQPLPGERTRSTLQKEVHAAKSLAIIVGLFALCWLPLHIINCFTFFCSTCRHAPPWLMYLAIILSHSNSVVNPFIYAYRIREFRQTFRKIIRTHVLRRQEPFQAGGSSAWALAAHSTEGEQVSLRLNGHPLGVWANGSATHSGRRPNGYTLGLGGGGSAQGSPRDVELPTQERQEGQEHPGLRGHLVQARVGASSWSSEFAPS
Method: The affinity of the test compound for A2 receptors was also evaluated using Wister rat striatal membranes.
The selectivity for A1 and A2 receptors was obtained by calculating the ratio of the Ki value in terms of A2 receptors to that in terms of A1 receptors (A1 /A2).

[2] = test system: spontaneously hypertensive rats (SHRs); assay: Effect on blood pressure and heart rate in SHR; format: in vivo, rat; conditions: for ED30: Rattus norvegicus, iv, 5 min, read-out: Blood Pressure ED30; for Heart Rate ED10: amount giving a 10 percent decrease in initial heart rate; for ED10/ED30: ratio of heart rate ED10 to blood pressure ED30 in SHR
Method: Male spontaneously hypertensive rats (SHRs) were anesthetized with urethane and α-chloralose. The blood pressure of the rats was measured with a pressure transducer through a polyethylene cannula inserted into the left carotid artery. The heart rate was monitored with a cardiotachometer triggered by the arterial pressure pulse. […] The blood pressure and the heart rate of the rats were measured 5 minutes after the respective administrations, and the maximum values thereof were determined.
Effects of the test compounds on the blood pressure and the heart rate were compared in terms of the ED30 and ED10 values.

[3] = biological target: T2, A1 adenosine receptors (Rattus norvegicus, UniProt P25099); assay: Affinity for A1 adenosine receptors, [3H]-CHA binding to Wister rat brain membranes; conditions: 2.5 nM [3H]-CHA, Cheng and Prusoff, read-out: Affinity for Adenosine Receptors A1, affinity constant (Ki)
T2 construct: evaluated using Wister rat brain membranes; from tissue; host or cells: Wistar rat brain membranes
T2 sequence (P25099 1-326): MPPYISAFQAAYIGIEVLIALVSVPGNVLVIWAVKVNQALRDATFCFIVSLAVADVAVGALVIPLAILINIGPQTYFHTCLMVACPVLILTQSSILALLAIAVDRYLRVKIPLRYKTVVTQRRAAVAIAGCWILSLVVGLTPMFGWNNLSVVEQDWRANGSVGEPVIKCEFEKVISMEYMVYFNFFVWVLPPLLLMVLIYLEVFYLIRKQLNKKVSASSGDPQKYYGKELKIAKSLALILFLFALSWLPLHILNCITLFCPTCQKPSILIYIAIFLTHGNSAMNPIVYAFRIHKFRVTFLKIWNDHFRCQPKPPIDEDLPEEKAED
Method: The affinity of the compounds of the present invention for adenosine receptors was evaluated in substantially the same manner as is described in R. F. Bruns et al., Mol. Pharmacol., 29, 331-346 (1986); R. F. Bruns et al., Proc. Natl. Acad. Sci., U.S.A., 77, 5547 (1980); and Japanese Laid-Open Patent Publications Nos. 201196/1988 and 111996/1987. […] The above-obtained data were applied to the equation of Cheng and Prusoff, presented in Biochem. Pharmacol., 22, 3099 (1973), thereby finally obtaining the affinity constants (Ki). (See "Neurotransmitter and Receptor Binding". […] Kabushiki Kaisha (Sep. 15, 1987).)

[4] = test system: A2 adenosine receptors; conditions: background statement; cited from earlier work
[5] = test system: A1 adenosine receptors; conditions: background statement; cited from earlier work
[6] = anesthetized male SHR, cumulative administration through femoral veins

| SMILES | Ki [1] [nM] | ED30 [2] [µg/kg] | Heart Rate ED10 [2, 6] [µg/kg] | ED10/ED30 [2] | Ki [3] [nM] | A1/A2 (selectivity, ratio of Ki values) ([1]; ratio of Ki for A1 receptors to Ki for A2 receptors) | ED30 ([2]; amount giving a 30 percent decrease in initial blood pressure, anesthetized male SHR, cumulative administration through femoral veins) [µg/kg] | affinity for A2 receptors [4] | affinity for A1 receptors [5] |
| --- | --- | --- | --- | --- | --- | --- | --- | --- | --- |
| Nc1nc(C#CCC2CCCC2)nc2c1ncn2[C@@H]1O[C@H](CO)[C@@H](O)[C@H]1O [Compound No. 18, 2-(3-cyclopentyl-1-propynyl)adenosine] | 2.3 | 0.054 | > 100 | > 1851 | 162 |  |  |  |  |
| Nc1nc(C#CC2(O)CCCCCCC2)nc2c1ncn2[C@@H]1O[C@H](CO)[C@@H](O)[C@H]1O [Compound No. 45, 2-[(1-hydroxycyclooctane-1-yl)ethynyl]adenosine] |  | 0.012 | 14.78 | 1231 | 56 |  |  |  |  |
| Nc1nc(C#CCC2CCCCC2)nc2c1ncn2[C@@H]1O[C@H](CO)[C@@H](O)[C@H]1O [Compound No. 26, 2-(3-cyclohexyl-1-propynyl)adenosine] |  | 0.126 | > 100 | > 793 | 208 |  |  |  |  |
| Nc1nc(C#CC2(O)CCCCC2)nc2c1ncn2[C@@H]1O[C@H](CO)[C@@H](O)[C@H]1O [Compound No. 29, 2-[(1-hydroxycyclohexane-1-yl)ethynyl]adenosine] |  | 0.014 | 3.29 | 235 | 21 |  |  |  |  |
| CCCCCCC#Cc1nc(N)c2ncn([C@@H]3O[C@H](CO)[C@@H](O)[C@H]3O)c2n1 [2-Octynyladenosine, reference compound] | 11 |  | 64.50 | 258 |  | 12.1 | 0.25 |  |  |
| CCNC(=O)[C@H]1O[C@@H](n2cnc3c(N)ncnc32)[C@H](O)[C@@H]1O [5'-N-ethylcarboxamideadenosine (NECA), 5'-N-ethylcarboxamideadenosine] |  |  |  |  |  |  |  | high affinity for A2 receptors | high affinity for A1 receptors |
